Laboratory results reported in PMC6492070 (Frontiers in Pharmacology, 2019).
“And” between values parts separate entries of the source, which are not always exact repeats. Equal values may be shown once. Read-outs that look alike come from different tables or passages of the source.

Columns and labels:
CYP2A19 [1] = test system: CYP2A19
CYP2A19 [2] = test: in vitro; settings: both, hybrid sow × Piétrain boar, pig
CYP2D [3] = test system: CYP2D
CYP2D [4] = test: in vitro; settings: both, hybrid sow × Piétrain boar, pig
CYP2C [5] = test system: CYP2C
CYP3A [6] = test system: CYP3A
CYP2D [7] = test system: CYP2D; remark: listed apart in the source
CYP2C [8] = test system: CYP2C; remark: listed apart in the source
CYP3A [9] = test system: CYP3A; remark: listed apart in the source
[10] = pig, in vivo; cited from earlier work
IPEC-J2 cells = settings: cited from earlier work
CYP2C [11] = test: in vitro; settings: both, hybrid sow × Piétrain boar, pig
CYP3A [12] = test: in vitro; settings: both, pig
[13] = both, hybrid sow × Piétrain boars, pig, in vivo
in vivo = settings: both, hybrid sow × Piétrain boars, pig; for k el: Ke
[14] = both, hybrid sow × Piétrain boar, pig

## O=c1ccc2ccccc2o1 [CM, coumarin, reference compound]
CYP2A19 [1]
  Vmax: 359 (4.1) pmol/mg protein/min
CYP2A19 [2]
  Km: 0.91 µM

## COc1ccc2c(c1)[C@]13CCCC[C@@H]1[C@H](C2)N(C)CC3 [DXM, Dextromethorphan, reference compound]
CYP2D [3]
  Vmax: 1971 (39.7) pmol/mg protein/min
CYP2D [4]
  Km: 2 µM

## CCCC[C@@H](C)[C@@H](OC(=O)C[C@@H](CC(=O)O)C(=O)O)[C@H](C[C@@H](C)C[C@H](O)CCCC[C@@H](O)C[C@H](O)[C@H](C)N)OC(=O)C[C@@H](CC(=O)O)C(=O)O [FB1, fumonisin B1]
CYP2A19 [1]
  Inhibition type: Full mixed
  Ki: 2.3 µM
  Residual activity: 22.8 (3.50) %
  α: 14.0 (4.30)
CYP2A19 [1]; microsomes
  Inhibition (efficacy): 17%

## CC(=O)OC[C@]12C[C@H](OC(=O)CC(C)C)C(C)=C[C@H]1O[C@@H]1[C@H](O)[C@@H](OC(C)=O)[C@@]2(C)[C@]12CO2 [T-2, T-2 toxin]
CYP2C [5]
  Formed metabolite OH-TB: 8.9 ng/mL and 12.9 ng/mL and 13.4 ng/mL
  OH-TB formation rate: 12.4325 pmol/min/mg protein and 18.0201 pmol/min/mg protein and 18.7185 pmol/min/mg protein
  OH-TB formation rate, PRE: 12.0134 pmol/min/mg protein and 12.2928 pmol/min/mg protein
  OH-TB, pre-incubation (ruwe data): 8.6 and 8.8
  Residual CYP enzyme activity, TB (CYP2C): 46.3% and 62.3%
CYP2E
  Formed metabolite OH-CZ: 25.3 ng/mL and 26.9 ng/mL
  OH-CZ formation rate: 272.688 pmol/min/mg protein and 289.933 pmol/min/mg protein
  OH-CZ formation rate, PRE: 237.12 pmol/min/mg protein and 232.809 pmol/min/mg protein and 217.719 pmol/min/mg protein
  OH-CZ, pre-incubation (ruwe data): 22 and 21.6 and 20.2
  Residual CYP enzyme activity, CZ (CYP2E): 65.4% and 79.5%
CYP2A
  Formed metabolite OH-CM: 6.5 ng/mL and 7.1 ng/mL and 6.9 ng/mL
  OH-CM formation rate: 80.1776 pmol/min/mg protein and 87.5786 pmol/min/mg protein and 85.1116 pmol/min/mg protein
  OH-CM formation rate, PRE: 65.3756 pmol/min/mg protein and 55.5076 pmol/min/mg protein and 64.1421 pmol/min/mg protein
  OH-CM, pre-incubation (ruwe data): 5.3 and 4.5 and 5.2
  Residual CYP enzyme activity, CM (CYP2A): 72.5% and 99.1%
CYP1A
  Formed metabolite PAR: 47.3 ng/mL and 46.6 ng/mL and 46.9 ng/mL
  PAR formation rate: 625.827 pmol/min/mg protein and 616.565 pmol/min/mg protein and 620.535 pmol/min/mg protein
  PAR formation rate, PRE: 523.948 pmol/min/mg protein and 490.871 pmol/min/mg protein and 492.194 pmol/min/mg protein
  PAR, pre-incubation (ruwe data): 39.6 and 37.1 and 37.2
  Residual CYP enzyme activity, PH (CYP1A): 78.2% and 96.7%
CYP3A [6]
  Formed metabolite OH-MDZ: 163 ng/mL and 160.8 ng/mL and 268.8 ng/mL
  OH-MDZ formation rate: 953.858 pmol/min/mg protein and 940.984 pmol/min/mg protein and 1572.99 pmol/min/mg protein
  OH-MDZ formation rate, PRE: 348.773 pmol/min/mg protein and 383.884 pmol/min/mg protein and 308.395 pmol/min/mg protein
  OH-MDZ, pre-incubation (ruwe data): 59.6 and 65.6 and 52.7
CYP2D [7]
  DEX formation rate: 838.482 pmol/min/mg protein and 812.838 pmol/min/mg protein and 850.138 pmol/min/mg protein
  DEX formation rate, PRE: 660.528 pmol/min/mg protein and 864.903 pmol/min/mg protein and 852.469 pmol/min/mg protein
  DEX, pre-incubation (ruwe data): 85 and 111.3 and 109.7
  Formed metabolite DEX: 107.9 ng/mL and 104.6 ng/mL and 109.4 ng/mL
  Residual CYP enzyme activity, DXM (CYP2D): 94.2% and 99.1%
CYP2C [8]
  Inhibition type: Full competitive
  Ki: 14.8 µM
  Residual activity: 24.0 (1.38) %
CYP3A [9]
  Inhibition type: Full non-competitive
  Ki: 27 µM
[10]
  Mean elimination half-life: 0.23 h
  Parent toxin in plasma and liver: no parent toxin could be detected
IPEC-J2 cells
  Concentration significantly affecting epithelial integrity: 10 ng/mL and 21.43 nM

## CCCCNC(=O)NS(=O)(=O)c1ccc(C)cc1 [TB, tolbutamide, reference compound]
CYP2C [8]
  Vmax: 160 (16.0) pmol/mg protein/min and 132 (17.9) pmol/mg protein/min
CYP2C [8]; [14]
  Km: 804 µM
CYP2C [11]; Km
  Km: 1070 µM

## C[C@H]1CCCC(=O)CCC/C=C/c2cc(O)cc(O)c2C(=O)O1 [ZEA, zearalenone]
CYP2C [8]
  Inhibition type: Partial competitive
  α: 9.5 (1.05)
CYP2C [8]; [14]
  Residual activity: 18.7 (0.35) %
CYP3A [9]
  Inhibition type: Partial mixed
  α: 3.8 (1.43)
  β: 0.26 (0.064)
CYP3A [9]; both, hybrid sow × Piétrain boar cross, pig
  mean OH-MDZ formation rate as % of [mycotoxine]=0: 26.7981
CYP3A [9]; both, hybrid sow × Piétrain boars, pig, microsomes
  Residual activity: 27.0 (3.16) %
CYP2D [3]
  DEX formation rate as % of [mycotoxine]=0: 37.1724
  Inhibition type: Full non-competitive
CYP2C [11]
  Ki: 0.54 µM
CYP2C [11]; Residual activity
  activity: < 30%
CYP3A [12]; hybrid sow × Piétrain boars, microsomes
  Ki: 1.1 µM
CYP3A [12]; hybrid sow × Piétrain boars, microsomes, Residual activity
  activity: < 30%
CYP2D [4]
  Ki: 55.4 µM
  activity: 32%

## Cc1ncc2n1-c1ccc(Cl)cc1C(c1ccccc1F)=NC2 [midazolam]
CYP3A [9]
  Vmax: 2155 (73.8) pmol/mg protein/min and 1899 (88.2) pmol/mg protein/min
CYP3A [9]; [14]
  Km: 11.3 µM
[13]; iv, 0.036 mg/kg
  Cl: 45.5 (22.75) L/h
[13]; po
  AUC (0-inf) in the ZEA group, times higher on average: about 2.5 times
  Average Ka of the T-2 group, times higher compared to the control group: about 2.5 times
In vivo; iv, 0.036 mg/kg
  AUC(0-inf): 11.5 ng·h/mL
  k el: 0.000231 s⁻¹
  MRT: 0.71 h
In vivo; iv, 0.036 mg/kg, Cl
  clearance: 767 mL/min
In vivo; iv, 0.036 mg/kg, Vd
  Vd: 60.8 L
In vivo; iv
  AUC(0-inf): 18 ng·h/mL
In vivo; po, 0.15 mg/kg
  k el: 0.000108 s⁻¹
  MRT: 3.58 h
In vivo; po, 0.15 mg/kg, Mean Tmax after removing the observation
  Tmax: 0.714 ± 0.559 h
In vivo; po, 0.15 mg/kg, Tmax
  Tmax: 1.15 h
In vivo; po, 0.15 mg/kg, Tmax of one pig
  Tmax: 4 h
In vivo; po, 0.15 mg/kg, Tmax range
  Tmax: 0.67 to 2 h
In vivo; po, 0.15 mg/kg, Tmax range of the other pigs
  Tmax: 0.16 to 1.5 h
CYP3A [12]; hybrid sow × Piétrain boar, Km
  Km: 12.3 µM
